“And” between values parts separate entries of the source, which are not always exact repeats. Equal entries are not always repeated. Where two headings read alike, the source gives them in different places.
Key:
C57BL/6J mice = settings: C57BL/6J (n=6); 300 cGy TBI + 200 mg/kg CyP
Source text: (§1) Three to five week old C57BL/10-Cd4^tml(CD4-KO;H2^b, n=5), C57BL/6J-CD4^tm/mak (CD4-KO; H2^b, n=15) CD57BL/6JCD8α^tm/mak (CD8-KO; H2^b, n=16), C57BL/6J (B6; H2^b, n=6), C57BL/6-6d4^tm/mak (CD4-KO) and C57BL/6-Cd8^tm/mak (CD8-KO)recipient mice, as well as three to five week old B10.BR/SgSnJ (B10.BR, H2^k) donor mice were purchased from the Jackson Laboratory (Bar Harbor, Me.). Knock-out mice were housed in a special pathogen-free barrier facility, while donor mice were housed in a conventional barrier animal facility. Mice were cared for according to National Institute of Health animal care guidelines.
(§2) Bone marrow was prepared as previously described (Ildstad and Sachs, Nature, 307:168 (1984)). Briefly, B10.BR donor mice were euthanized and tibias and femurs harvested. Bone marrow was expelled from the bones with Media 199 (Gibco, Grand Island, N.Y.) containing 10 μg/ml Gentamicin (Gibco) (MEM). The cells were filtered through sterile nylon mesh with 100 μm pores, spun for minutes at 200×g and 4° C., and resuspended in MEM. A cell count was performed and the cells were diluted to a final concentration of 15×10^6 bone marrow cells per 1 ml of MEM.
(§3) CD4-KO and CD8-KO mice were treated with TBI from a cesium source (Gamma-cell 40, Nordion, Ontario, Canada). Doses from 0 to 300 cGy were administered according to the experimental groups. Animals were transplanted with 1 ml MEM containing 15×10^6 B10.BR bone marrow cells via lateral tail vein injection within 4 hours after irradiation.
(§4) Peripheral blood was obtained from the mice by tail-vein bleeding. The blood was collected in heparinized Eppendorf tubes 28 days, 3 months and 6 months after BMT. Fifty μl of whole blood were incubated for 7 minutes with 2 ml of lysing buffer (8.29 g of NH4Cl, 1.0 g of KHCO3 and 0.0372 g Na2EDTA in 1 liter H2O to lyse red blood cells. The cells were washed with 2 ml FACS medium (0.36 g NaHCO3, 1.0 g NaN3 and 1.0 g bovine serum albumin in 1 liter Hanks Balanced Salt Solution and spun at 200×g for 10 minutes at 4° C. After the supernatant was carefully decanted, cells were mixed with 10 μl diluted monoclonal antibodies (mAb; details discussed infra) and incubated for 30 minutes at 4° C. in the dark. The appropriate dilution for the use of the mAb was determined in titration experiments prior to use. After the incubation, the cells were washed twice with 2 ml of FACS medium and spun at 200×g for minutes at 4° C. Finally, the cells were fixed with 1% paraformaldehyde in PBS. The analyses were carried out on a FACS-Calibur (Becton Dickinson, Mountain View, Calif.) with CellQuest software (Becton Dickinson).
(§5) PBL were stained with mAb specific for MHC Class I antigens of donor (FITC conjugated anti-H2K^k, 36-7-5, mouse IgG1) and recipient (PE-conjugated anti-H2K^b, AF6-88.5, mouse IgG2a) origin to determine the percentage of donor chimerism. Multi-lineage engraftment was assessed by staining with biotinylated anti-H2K^k (36-7-5, mouse IgG1), FITC-conjugated anti-H2K^b (AF6-88.5, mouse IgG2a) and PE-conjugated lineage markers 3 months after BMT. The biotinylated antibody was recovered with Streptavidin-Allophycocyanin (SA-APC). The following antibodies were used as lineage markers: anti-GR-1 (RB6-8C5, rat IgG2^b); anti-MAC-1 (M1/70, rat IgG2^b); anti-CD4 (RM4-5, rat IgG2a); anti-CD8α (53-6.7, rat IgG2a); anti-B220 (RA3-6B2, rat IgG2a); anti-NK1.1 (PK136, mouse IgG2a); anti-TCR-β chain (H57-597, hamster IgG); and anti-γδ-TCR (GL3, hamster IgG). Non-specific background staining was controlled for by using isotype control antibodies directed against irrelevant antigens and conjugated with the same color as the experimental antibody (i.e., anti-TNP mouse IgG2a conjugated with PE served as isotype control for PE-conjugated anti-H2K^b mouse IgG2a). All mAb were obtained from PharMingen (San Diego, Calif.). SA-APC was purchased from Becton Dickinson (Mountain View, Calif.).

CD4-KO mice = settings: 300 cGy TBI + 200 mg/kg CyP
Source text: as §1, §2, §3, §4, §5

CD8-KO mice = test system: CD8-KO mice
Source text: as §1, §2, §3, §4, §5

O=P1(N(CCCl)CCCl)NCCCO1 (stereo not drawn) [CyP, cyclophosphamide]
% animals that engrafted (C57BL/6J mice): 0%
CD4-KO mice that engrafted (CD4-KO mice; 15 C57BL/6-Cd4 tm/mak mice): None
% animals that engrafted (CD4-KO mice; C57BL/6-Cd4 tm/mak (n=15)): 0%
% animals that engrafted (CD4-KO mice; C57BL/10-Cd4 tml (n=5)): 0%
animals with donor chimerism (CD8-KO mice; 200 mg/kg CyP alone without irradiation, 28 days after BMT): 6 of 6 and Six of 6 and 6 out of 6
% animals that engrafted (CD8-KO mice; C57BL/6-Cd8a tm/mak, 300 cGy TBI + 200 mg/kg CyP day 2): 100%
level of donor chimerism (CD8-KO mice; CyP and 100 cGy TBI (n=6)): 11±0.4%
level of donor chimerism (CD8-KO mice; CyP and 200 cGy TBI (n=6)): 32.7±1.5%
average level of donor chimerism (CD8-KO mice; CyP and 300 cGy TBI (n=16)): 45.7%±2.5

Source: patent publication US20030165475A1, “Non-lethal methods for conditioning a recipient for bone marrow transplantation” (priority 1993, published 2003)
